Data taken from PMC9981719, “A novel designed membrane-active peptide for the control of foodborne Salmonella enterica serovar Typhimurium” (Scientific Reports, 2023).
Where no end group is shown, it is not given here.

Assays:
[1] = test system: S. Typhimurium ATCC 13311 and 10 drug-resistant S. Typhimurium and S. enterica isolates; assay: Checkerboard titration, A11 with nisin, summary over strains; type: cell-based, Salmonella enterica; details: summary over tested strains
Method: (§1) Effects of the combination of A11 with nisin against S. Typhimurium ATCC 13311 and 10 drug-resistant S. Typhimurium and S. enterica isolates were determined by the checkerboard titration method. Briefly, 10 drug-resistant S. Typhimurium were grown to a concentration of 1 × 10^7 CFU/ml in fresh TSB. Aliquots (25 µl) of nisin (final concentrations of 0.5–16 mg/ml) and A11 (final concentrations of 0.98–250 µg/ml) were added into 96-well plates containing 50 µl of bacterial suspension and cultured at 37 °C. […] ICA is the concentration required to produce the same effect as compound A when used alone, ICB is the concentration required to produce the same effect as compound B when used alone. The CI results were interpreted as follows: a CI of less than 1 indicates synergistic effect, a CI equal to 1 indicates additive effect, and a CI of more than 1 indicates antagonistic effect.

S. Typhimurium H1-062 [2] = assay: MIC/MBC against drug-resistant isolate; type: cell-based, Salmonella enterica serovar Typhimurium; details: strain H1-062
Source text: (§2) All tests were done in triplicate.

S. Typhimurium H1-006 [3] = assay: MIC/MBC against drug-resistant isolate; type: cell-based, Salmonella enterica serovar Typhimurium; details: strain H1-006
Source text: as §2

S. Typhimurium H1-041 [4] = assay: MIC/MBC against drug-resistant isolate; type: cell-based, Salmonella enterica serovar Typhimurium; details: strain H1-041
Source text: as §2

4,5,12:i:- H2-010 = type: cell-based, Salmonella enterica 4,5,12:i:-; details: strain H2-010
Source text: as §2

4,5,12:i:- H2-039 [5] = type: cell-based, Salmonella enterica 4,5,12:i:-; details: strain H2-039
Source text: as §2

4,5,12:i:- H1-024 = type: cell-based, Salmonella enterica 4,5,12:i:-; details: strain H1-024
Source text: as §2

4,5,12:i:- H2-042 [6] = type: cell-based, Salmonella enterica 4,5,12:i:-; details: strain H2-042
Source text: as §2

4,5,12:i:- H1-100 [7] = type: cell-based, Salmonella enterica 4,5,12:i:-; details: strain H1-100
Source text: as §2

4,5,12:i:- H2-067 = type: cell-based, Salmonella enterica 4,5,12:i:-; details: strain H2-067
Source text: as §2

4,5,12:i:- H2-071 = type: cell-based, Salmonella enterica 4,5,12:i:-; details: strain H2-071
Source text: as §2

4,5,12:i:- H2-047 = type: cell-based, Salmonella enterica 4,5,12:i:-; details: strain H2-047
Source text: as §2

4,5,12:i:- H2-089 [8] = type: cell-based, Salmonella enterica 4,5,12:i:-; details: strain H2-089
Source text: as §2

4,5,12:i:- H2-049 = type: cell-based, Salmonella enterica 4,5,12:i:-; details: strain H2-049
Source text: as §2

[9] = test system: 16 drug-resistant S. Typhimurium and 4,5,12:i:- isolates from Thailand; type: cell-based, Salmonella enterica; details: summary over 16 isolates; nisin up to maximum concentration of 16,000 µg/ml
Source text: as §2

S. Typhimurium H1-001 [10] = type: cell-based, Salmonella enterica serovar Typhimurium; details: strain H1-001
Source text: as §2

S. Typhimurium H1-011 [11] = type: cell-based, Salmonella enterica serovar Typhimurium; details: strain H1-011
Source text: as §2

S. Typhimurium H1-015 [12] = type: cell-based, Salmonella enterica serovar Typhimurium; details: strain H1-015
Source text: as §2

[13] = test system: Salmonella Typhimurium ATCC 13311; type: cell-based, Salmonella enterica serovar Typhimurium; details: broth microdilution in MHB, 37 °C, 24 h, visible inspection, triplicate
Source text: as §2

S. Typhimurium H1-062 [14] = details: checkerboard
Method: as §1

S. Typhimurium H1-001 [15] = details: checkerboard
Method: as §1

4,5,12:i:- H2-039 [16] = details: checkerboard
Method: as §1

S. Typhimurium H1-006 [17] = details: checkerboard
Method: as §1

4,5,12:i:- H2-042 [18] = details: checkerboard
Method: as §1

4,5,12:i:- H1-100 [19] = details: checkerboard
Method: as §1

S. Typhimurium H1-011 [20] = details: checkerboard
Method: as §1

S. Typhimurium ATCC13311 = details: checkerboard, TSB, 37 °C, 24 h
Method: as §1

S. Typhimurium H1-015 [21] = details: checkerboard
Method: as §1

4,5,12:i:- H2-089 [22] = details: checkerboard
Method: as §1

S. Typhimurium H1-041 [23] = details: checkerboard
Method: as §1

Nisin (ITSISLCTPGCKTGALMGCNMKTATCHCSIHVSK; not fully specified (some residues, bridges); also: lantibiotic nisin-A: thioether (lanthionine) rings and dehydrated residues, places not given here; UniProt P13068 24-57, looked up)
MIC of nisin in combination with A11 [1]: 500 µg/mL
MIC (S. Typhimurium H1-062 [2]): > 16,000 µg/ml
MIC (S. Typhimurium H1-006 [3]): > 16,000 µg/ml
MIC (S. Typhimurium H1-041 [4]): > 16,000 µg/ml
MIC (4,5,12:i:- H2-010): > 16,000 µg/ml
MIC (4,5,12:i:- H2-039 [5]): > 16,000 µg/ml
MIC (4,5,12:i:- H1-024): > 16,000 µg/ml
MIC (4,5,12:i:- H2-042 [6]): > 16,000 µg/ml
MIC (4,5,12:i:- H1-100 [7]): > 16,000 µg/ml
MIC (4,5,12:i:- H2-067): > 16,000 µg/ml
MIC (4,5,12:i:- H2-071): > 16,000 µg/ml
MIC (4,5,12:i:- H2-047): > 16,000 µg/ml
MIC (4,5,12:i:- H2-089 [8]): > 16,000 µg/ml
MIC (4,5,12:i:- H2-049): > 16,000 µg/ml
MICs against the 16 drug-resistant S. enterica isolates [9]: > 16,000 µg/ml
MIC (S. Typhimurium H1-001 [10]): > 16,000 µg/ml
MIC (S. Typhimurium H1-011 [11]): > 16,000 µg/ml
MIC (S. Typhimurium H1-015 [12]): > 16,000 µg/ml
MIC [13]: 16,000 µg/ml
MIC (combination) (S. Typhimurium H1-062 [14]; A11 combined with nisin): 500 µg/mL
MIC (alone) (S. Typhimurium H1-062 [14]; TSB, 37 °C, 24 h): > 16,000 µg/ml
MIC (combination) (S. Typhimurium H1-001 [15]; A11 combined with nisin): 500 µg/mL
MIC (alone) (S. Typhimurium H1-001 [15]; TSB, 37 °C, 24 h): > 16,000 µg/ml
MIC (combination) (4,5,12:i:- H2-039 [16]; A11 combined with nisin): 500 µg/mL
MIC (alone) (4,5,12:i:- H2-039 [16]; TSB, 37 °C, 24 h): > 16,000 µg/ml
MIC (combination) (S. Typhimurium H1-006 [17]; A11 combined with nisin): 500 µg/mL
MIC (alone) (S. Typhimurium H1-006 [17]; TSB, 37 °C, 24 h): > 16,000 µg/ml
MIC (combination) (4,5,12:i:- H2-042 [18]; A11 combined with nisin): 500 µg/mL
MIC (alone) (4,5,12:i:- H2-042 [18]; TSB, 37 °C, 24 h): > 16,000 µg/ml
MIC (combination) (4,5,12:i:- H1-100 [19]; A11 combined with nisin): 500 µg/mL
MIC (alone) (4,5,12:i:- H1-100 [19]; TSB, 37 °C, 24 h): > 16,000 µg/ml
MIC (combination) (S. Typhimurium H1-011 [20]; A11 combined with nisin): 500 µg/mL
MIC (alone) (S. Typhimurium H1-011 [20]; TSB, 37 °C, 24 h): > 16,000 µg/ml
MIC (combination) (S. Typhimurium ATCC13311; A11 combined with nisin): 4000 µg/mL
MIC (alone) (S. Typhimurium ATCC13311): 16,000 µg/ml
MIC (combination) (S. Typhimurium H1-015 [21]; A11 combined with nisin): 500 µg/mL
MIC (alone) (S. Typhimurium H1-015 [21]; TSB, 37 °C, 24 h): > 16,000 µg/ml
MIC (combination) (4,5,12:i:- H2-089 [22]; A11 combined with nisin): 500 µg/mL
MIC (alone) (4,5,12:i:- H2-089 [22]; TSB, 37 °C, 24 h): > 16,000 µg/ml
MIC (combination) (S. Typhimurium H1-041 [23]; A11 combined with nisin): 500 µg/mL
MIC (alone) (S. Typhimurium H1-041 [23]; TSB, 37 °C, 24 h): > 16,000 µg/ml
